Entries after “also recorded” stand apart in the source; their conditions may differ.
Key:
[1] = test system: insect NaV channels (cockroach DUM neurons); experiment: Whole-cell patch-clamp, NaV channel currents; type: cell-based, American cockroach (Periplaneta americana)
NaV channels = details: cited from earlier work

## NC1=N[C@H](O)[C@H]2[C@H]3O[C@]4(O)O[C@@H]([C@@H](O)[C@@]2(N1)[C@@H]4O)[C@]3(O)CO [TTX, tetrodotoxin]
[1]
  inhibition of INa by TTX: complete INa inhibition; also recorded: Complete block of INa
NaV channels
  effect on peak INa: reduce peak INa

Reference: publication PMC3654253 (Biochemical pharmacology, 2013)
